# Results taken from patent US20020187925A1, “Modulating the activity of hormones or their receptors - peptides, antibodies, vaccines and uses thereof” (priority 1996, published 2002).
# Non-standard residues stand in square brackets, D forms with d. No end group written: not given here. NMeY = CN[C@@H](Cc1ccc(O)cc1)C(=O)O
# Tests used:
# [1] = Example 22: pregnant pigs immunised twice in last trimester; anti-SRIF antibodies and piglet growth rates; format: in vivo; settings: for absolute growth rates of the piglets: birth to weaning, non-immunised control 165; for anti-SRIF antibodies in colostrum and milk of the sow and in blood and gut scrapings of piglets: piglets at 3 days and 21 days of age, antigen in the preferred oil
# From the text: The absolute growth rates of the piglets from birth to weaning were: […]
# [2] = Example 23: weaning weight of piglets of immunised sows; format: in vivo, pigs; settings: 21 days of age; sows immunized twice in last trimester
# From the text: Sows immunized twice in the last trimester of pregnancy with SEQ ID No 3 produced piglets which were on average 27% heavier at weaning (at 21 days of age) than the offsprings of sows immunised with SRIF 14 conjugate vaccine. The levels of anti-SRIF antibodies measured are given below: […]
# SRIF = experiment: Example 23: levels of anti-SRIF antibodies in gut, plasma, milk; format: in vivo, pigs; settings: for Gut IgA anti-SRIF antibodies / Gut IgG anti-SRIF antibodies / Plasma IgA anti-SRIF antibodies / Plasma IgG anti-SRIF antibodies: piglets
# From the text: Sows immunized twice in the last trimester of pregnancy with SEQ ID No 3 produced piglets which were on average 27% heavier at weaning (at 21 days of age) than the offsprings of sows immunised with SRIF 14 conjugate vaccine. The levels of anti-SRIF antibodies measured are given below:
# Significant quantities of antibodies to SRIF were detected in the plasma and gut scrapings of piglets sucking sows immunised with SRIF/BSA or SEQ ID NO:3 emulsified in the oil of the invention.
# [3] = Immunisation of growing lambs with antigen in oil; format: in vivo
# Experimental: When this antigen was injected three times into growing lambs with the preferred delivery vehicle (oil), anti-SRIF and anti-cholecystokinin antibodies were detectable at 84 days of age. By this time, the immunised lambs had grown an average of 20% more than non-immunised lambs.
# [4] = Immunisation of male pigs from 12 weeks of age; format: in vivo
# From the text: Male pigs immunised with this peptide three times from 12 weeks of age grew an average of […] faster than non-immunised pigs to 24 weeks of age, and the testicle size of the immunised pigs was approximately 50% the size of those of the non-immunised animals.
# [5] = Solubility in sterile saline; format: physicochemical; settings: sterile physiological saline / sterile saline solutions
# [6] = Example 16: pregnant gilts immunised with FEEDMIZA or SRIF-conjugate; liveweight gain, feed conversion; format: in vivo, pigs
# Experimental: This experiment was designed to measure the effects of vaccinating pregnant gilts with FEEDMIZA by the subcutaneous route during first pregnancy. Opportunity was taken to compare any response to FEEDMIZA with response to a SRIF-conjugate vaccine delivered in the same delivery vehicle as peptide No.1. For that comparison the quantity of antigen was standardised at 100 μg of SRIF in the SRIF-conjugate, and 100 μg of the FEEDMIZA antigen.
# Twenty four Landrace X Large White female hybrid gilts were selected, mated and held in conventional dry sow stalls. They were randomly assigned to 3 treatment groups, viz:
# The gilts were immunised by subcutaneous injection of 3 ml of the relevant antigen at the neck-on the day of mating.
# The animals were held in conventional single dry sow stalls. At 30 days of pregnancy the treatment groups were reduced to 5 confirmed pregnant animals per treatment group. Subsequent vaccinations were performed at weeks 6, 9 and 12 of pregnancy. Each gilt was fed 3 kg of feed (Breedmore sow ration, Barastoc, Melbourne) each day from mating until farrowing. Each animal was weighed at mating, and at intervals of 3 weeks until farrowing.
# [7] = Example 17: sows of Example 16 during lactation; liveweight loss; format: in vivo, pigs
# From the text: This experiment was a continuation of the trial of Example 16. It sought to observe the rate of liveweight gain of piglets during the lactation period up to weaning for piglets whose dams were immunised during gestation with FEEDMIZA, or with a SRIF-conjugate vaccine, using piglets being reared by non-immunised dams as controls.
# Sows from Example 16 continued to be reared without any further immunisations or manipulations, with the exception that;
# a) daily feed offered was increased to 6 kg per head from farrowing to weaning 21 days later.
# b) 3 days after farrowing the number of piglets on each sow was reduced to 8 to ensure that each litter of pigs in the experiment was benefiting from the combined effects of the quantity of milk produced, and ingested any antibodies that might be in them, without confounding influences of varying litter sizes, social interactions, and competition for teats. Sows were weighed at weaning.
# Piglets were individually identified at birth, and were weighed at birth, and each 7 days until weaning at 21 days of age. All piglets received a routine oral dose of broad spectrum antibiotic (Tribrissen Piglet Suspension, Intervet, Melbourne) at three days of age, as well as an intramuscular supplemental iron injection Pignaemia, Intervet, Melbourne)
# Water was available ad libitum to sows and piglets at all times.
# [8] = Example 18: liveweights of piglets of immunised sows; format: in vivo, pigs
# From the text: This experiment sought to study the effects pre-farrowing immunisation of sows with SRIF-conjugate vaccine, or FEEDMIZA vaccine on the subsequent patterns of liveweight gain of their sucking piglets to weaning at 3 weeks of age, and for the post-weaning period The experiment monitored the piglets which were the subject of the previous experiment.
# The piglets (8 per litter) on each of the 5 sows in the treatment groups (non-immunised, SRIF-conjugate immunised and FEEDMZA-immunised) were individually eartagged for identification, and were weighed at birth, 7, 14, 21 days (the day of weaning) and 35 days of age (2 weeks post-weaning).
# During lactation the piglets had ready access to a creep area which was warmed by an infra-red lamp, water ad libitum and creep feed granules (Barastoc, Melbourne) for the period of 18-21 days of age. They had no access to their mothers feed during the period of lactation
# At weaning each litter of piglets was placed in a flatdeck weaning cage with 50% of the floor being bedding area, and 50% woven wire mesh. The cage was provided with a small silo feeder containing the same creep/weaner feed which had been offered to the piglets for the 3 days prior to weaning. Feed and fresh drinking water were offered ad libitum.
# [9] = Growth of piglets suckling dams vaccinated in last trimester of pregnancy; format: in vivo, pigs; settings: birth to weaning
# From the text: Piglets suckling dams which had been vaccinated with this molecule in the last trimester of pregnancy grew an average of 40% faster from birth to weaning than did corresponding piglets which were suckling non-immunised dams.
substance,measurement,setting,value
C-F-W-K-T-C-S-G (CFWKTCSG; not fully specified (bridges); printed as C-F-W-K-T-C-S-G; cysteine pairing not given here) [SEQ ID NO:3],absolute growth rates of the piglets,[1],275 g per day
same,anti-SRIF antibodies in colostrum and milk of the sow and in blood and gut scrapings of piglets,[1],produced anti-SRIF antibodies
same,piglets heavier at weaning than offspring of sows immunised with SRIF 14 conjugate vaccine,[2],27%
same,Milk/colostrum IgA anti-SRIF antibodies,SRIF; DAY 3,0.026 ± 0.028 OD @ 405 nm
same,Sow's milk IgG anti-SRIF antibodies,SRIF; DAY 3,1.4 ± 0.162 OD @ 405 nm
same,Gut IgA anti-SRIF antibodies,SRIF; DAY 3,0.12 ± 0.157 OD @ 405 nm
same,Gut IgG anti-SRIF antibodies,SRIF; DAY 3,0.51 ± 0.21 OD @ 405 nm
same,Plasma IgA anti-SRIF antibodies,SRIF; DAY 3,1.43 ± 0.217 OD @ 405 nm
same,Plasma IgG anti-SRIF antibodies,SRIF; DAY 3,0.9 ± 0.13 OD @ 405 nm
same,Gut IgA anti-SRIF antibodies,SRIF; DAY 21,0.10 ± 0.087 OD @ 405 nm
same,Gut IgG anti-SRIF antibodies,SRIF; DAY 21,0.123 ± 0.09 OD @ 405 nm
same,Plasma IgA anti-SRIF antibodies,SRIF; DAY 21,0.567 ± 0.21 OD @ 405 nm
same,Plasma IgG anti-SRIF antibodies,SRIF; DAY 21,2.12 ± 0.23 OD @ 405 nm
SRIF/BSA: SRIF 14 (native somatostatin) conjugate presented with the preferred oil [reference compound],absolute growth rates of the piglets,[1],180 g per day
same,anti-SRIF antibodies in colostrum and milk of the sow and in blood and gut scrapings of piglets,[1],produced anti-SRIF antibodies
same,Milk/colostrum IgA anti-SRIF antibodies,SRIF; DAY 3,0.029 ± 0.035 OD @ 405 nm
same,Sow's milk IgG anti-SRIF antibodies,SRIF; DAY 3,1.6 ± 0.22 OD @ 405 nm
same,Gut IgA anti-SRIF antibodies,SRIF; DAY 3,0.189 ± 0.133 OD @ 405 nm
same,Gut IgG anti-SRIF antibodies,SRIF; DAY 3,0.684 ± 0.548 OD @ 405 nm
same,Plasma IgA anti-SRIF antibodies,SRIF; DAY 3,1.067 ± 0.469 OD @ 405 nm
same,Plasma IgG anti-SRIF antibodies,SRIF; DAY 3,1.38 ± 0.44 OD @ 405 nm
same,Gut IgA anti-SRIF antibodies,SRIF; DAY 21,0.037 ± 0.05 OD @ 405 nm
same,Gut IgG anti-SRIF antibodies,SRIF; DAY 21,0.259 ± 0.18 OD @ 405 nm
same,Plasma IgA anti-SRIF antibodies,SRIF; DAY 21,0.798 ± 0.49 OD @ 405 nm
same,Plasma IgG anti-SRIF antibodies,SRIF; DAY 21,1.779 ± 0.13 OD @ 405 nm
F-W-K-T-S-T-K-T-S-T-K-W-F (FWKTSTKTSTKWF) [SEQ ID NO:5],anti-SRIF antibodies in colostrum and milk of the sow and in blood and gut scrapings of piglets,[1],produced anti-SRIF antibodies
A-Y-M-G-W-S-C-T-K-W-F (AYMGWSCTKWF) [SEQ ID NO:52],growth more than non-immunised lambs,[3]; by 84 days of age,20%
same,anti-SRIF and anti-cholecystokinin antibodies,"[3]; lambs injected three times in oil, at 84 days of age",detectable
F-W-K-T-S-K-H-W-S-Y-G-L-R-D-G-C (FWKTSKHWSYGLRDGC) [SEQ ID NO:53],grew faster than non-immunised pigs,"[4]; male pigs immunised three times from 12 weeks, to 24 weeks of age",12 weeks
same,testicle size relative to non-immunised animals,"[4]; male pigs, 24 weeks of age",approximately 50%
LCFWKTC [SEQ ID NO:1],solubility in sterile saline,[5],relatively soluble
"SRIF-conjugate: SRIF-conjugate vaccine delivered in the same delivery vehicle as peptide No.1 (SANSNPAMAPRERKAGCKNFFWKTFTSC; ends and bridges not checked; also: SRIF-conjugate vaccine (conjugated, site not given here))",average liveweight gain per head during pregnancy,"[6]; mating to parturition, 345 Kg feed, non-immunised 60",75 kg
same,liveweight relative to non-immunised sows,[6]; weeks 12 and 15 of pregnancy (SRIF: from 9 weeks),at no point was this difference ever stastically significant
same,Farrowing weight,[7]; sows,154 ± 27.68 kg
same,Weaning weight,[7]; sows,166.4 ± 26 kg
same,Weight loss,"[7]; sows, farrowing to weaning",7.2
same,mean loss of liveweight of sows,"[7]; three weeks lactation period, non-immunised 10.8",12 kg
same,liveweights of the piglets at weaning,[8]; 21 days of age,7.32 ± 1.30 kg
same,Liveweights of the piglets 2 weeks after weaning,[8]; 35 days of age,8.89 ± 1.33 kg
same,mean birthweights of the piglets,[8]; born to immunised sows,1.40 ± 0.29 kg
NMe-Y-D-T-K-V-F-C-S ([NMeY]DTKVFCS) [SEQ ID NO:51],solubility in sterile saline,[5],very poorly soluble
same,growth of suckling piglets faster than piglets suckling non-immunised dams,[9],40%
F-W-K-T-S-G-G (FWKTSGG) [SEQ ID NO:4],absolute growth rates of the piglets,[1],240 g per day
same,anti-SRIF antibodies in colostrum and milk of the sow and in blood and gut scrapings of piglets,[1],produced anti-SRIF antibodies
